Data on 7 molecules can be found in US6350762B1, “Dihydropyridine derivative” (Ajinomoto Co., Inc., priority 1997, dated 2002).

Experiment [1] has as its target T1, N-type calcium channel (Homo sapiens, UniProt Q00975).
T1 construct: Human neuroblastoma cell IMR-32 was obtained from ATCC (American Type Culture Collection); host or cells: IMR-32 human neuroblastoma cells, differentiated with dibutyl cAMP and bromodeoxyuridine
The experiment is described as follows: Activity of inhibiting N-type calcium channel (fluorescent dye method), IMR-32 cells. The experiment is classed as cell-based. The conditions noted are these: fluorescent dye (fura-2) method, 60 mM KCl stimulation, 1 μM Nifedipine present; for IC50: read-out: N-type inhibition pIC50 (converted). How it is done: Activity of Inhibiting the Action of N-type Calcium Channel (Fluorescent Dye Method):
Human neuroblastoma cell IMR-32 was obtained from ATCC (American Type Culture Collection). The culture medium was prepared by adding 2 mM of L-glutamine (GIBCO), 1 mM of sodium pyruvate of pH 6.5 (GIBCO), a liquid antibiotic/antimicotic mixture (GIBCO) and 10% fetal calf serum (Cell Culture Technologies) to an Eagle minimum essential medium (GIBCO) free of Phenol Red and containing earle's salts supplyment. 3 ml of 1×10^5/ml IMR-32 cells was spread on a glass dish (Iwaki Glass Co., Ltd.) having a bottom diameter of 35 mm, which had been treated with poly-D-lysine (SIGMA) and also with collagen (COLLAGEN VITROGEN 100; a product of Collagen Co.). After the culture for 2 days, 1 mM (final concentration) of dibutyl cAMP and 2.5 μM of bromodeoxyuridine (SIGMA) were added to the culture mixture. After the culture for additional 10 to 14 days, the cells were used for the activity determination. The IMR-32 cell medium prepared as described above was replaced with Eagle minimum essential medium (GIBCO) containing 1 ml of 10 μM fura-2/AM (Dojin Kagaku Co.) and earle's salts supplyment but free of Phenol Red, and the incubation was conducted at 25° C. for one hour.
Then the medium was replaced with fura-2/AM-free Eagle minimum essential medium (GIBCO) free of Phenol Red and containing earle's salts supplyment. After conducting the incubation at 37° C. for one hour, the medium was replaced with a recording medium (comprising 20 mM of HEPES-KOH, 115 mM of NaCl, 5.4 mM of KCl, 0.8 mM of MgCl2, 1.8 mM of CaCl2 and 13.8 mM of D-glucose). The N-calcium channel inhibition activity was determined and analyzed with a fluorescent microscope (Nikon corporation) and an image analysis apparatus ARGUS 50 (Hamamatsu Photonics). Namely, a recording medium (comprising 20 mM of HEPES-KOH, 115 mM of NaCl, 5.4 mM of KCl, 0.8 mM of MgCl2, 1.8 mM of CaCl2 and 13.8 mM of D-glucose) containing 1 μM of Nifedipine was applied to the cells and refluxed by Y-tube method for 2 minutes. Then, a 60 mM potassium chloride-containing stimulating agent was rapidly given. Thereafter, 60 mM potassium chloride-containing stimulating agents which further contained 0.1, 1 or 10 μM of a test compound were rapidly and successively administered by Y-tube method to determine the channel inhibition activity. Finally, 60 mM potassium chloride-containing stimulating agent further containing 1 μM of omega conotoxin (Peptide Kenkyu-sho) was rapidly given by Y-tube method to realize 100% inhibition of the N-type calcium channel.

For a further experiment, the target named is T2, L-type calcium channel (Rattus norvegicus, UniProt P22002).
T2 construct: The slips of thoracic aorta extracted from Wistar rats were used; from tissue; host or cells: isolated thoracic aorta rings of Wistar rats, endothelium removed
The experiment in a line: Activity of inhibiting L-type calcium channel: relaxation of KCl contraction of isolated rat thoracic aorta. More on the design: species or system Wistar rats. The conditions noted are these: for IC50: KCl contraction of isolated rat thoracic aorta, read-out: L-type inhibition IC50. How it is done:
Activity of Inhibiting the Action of L-type Calcium Channel
The activity of the dihydropyridine derivatives of the present invention to inhibit the action of L-type calcium channel was determined by the following method wherein the relaxation reaction on the KCl contraction of isolated thoracic aorta samples of rats was utilized.
1) Preparation of Isolated Thoracic Aorta Samples of Rats
The slips of thoracic aorta extracted from Wistar rats were used. Blood vessels were cut to form rings having a width of about 3 mm. The endothelial cells of the blood vessels were mechanically removed. The samples were suspended in a strain gauge in Tyrode solution (comprising 158.3 mM of NaCl, 4.0 mM of KCl, […] of MgCl2, 0.42 mM of NaH2PO4, 10 mM of NaHCO3, 2 mM of CaCl2 and 5 mM of glucose) in which a gaseous mixture of O2 (95%) and CO2 (5%) was introduced, to apply a stationary tension of 2 g. The tension of the blood vessel was recorded with a multipen recorder (Rikadenki Kogyo Co., Ltd.) by using a transducer after the amplification with a tension amplifier (EF-601G; Nihon Kohden Corporation). The experiments were conducted at 37° C.
2) Determination of Relaxation Reaction Against KCl contraction
After the tension was stabilized, the nutrient solution in the sample tank was replaced with High K^+ Tyrode solution (comprising 112.3 mM of NaCl, 50 mM of KCl, 1.05 mM of MgCl2, 0.42 mM of NaH2PO4, 10 mM of NaHCO3, 2 mM of CaCl2 and 5 mM of glucose) to cause the contraction reaction. 30 minutes after, the solution in the sample tank was replaced with normal Tyrode solution. Then, the solution in the sample tank was again replaced with High K^+ Tyrode solution and the contraction reaction was observed. After the maximum contraction reaction occurred, a test compound was cumulatively added to realize concentrations of 10^−9, 10^−8, 10^−7 and 10^−6 M at intervals of 90 minutes. The inhibition rate of the test compound on the maximum contraction reaction was employed as the index of the activity of inhibiting the action of L-type calcium channel.

Experiment [2] concerns the target T3, N-type calcium channel (Rattus norvegicus, UniProt Q02294).
T3 construct: from tissue; host or cells: acutely dissociated sympathetic ganglion cells of Wistar rats (2 to 4 weeks old)
The experiment in a line: Inhibition activity of N-type calcium channel (patch clamp method), rat maxillary sympathetic ganglion cells. The conditions noted are these: 0.1 uM compound, whole cell voltage clamp, barium current. Format: cell-based, Wistar rats. How it is done: Inhibition Activity of N-type Calcium Channel (Patch Clamp Method)
1) Preparation of Cells of Maxillary Sympathetic Ganglions of Rats
The cervix of each of Wistar rats (2 to 4 weeks old) was opened to expose the maxillary ganglions under anesthesia with pentobarbital. A pair of the ganglions were removed and immediately washed with Ca^2+-free Tyrode solution cooled with ice. Each ganglion was cut into 3 or 4 pieces and kept in the Ca^2+-free Tyrode solution for 15 minutes. Then, these pieces were treated with papain [Washington Biochemicals (lot#35J557); 20 U/ml] for 20 minutes and then with a mixture of 2-type collagenase [Washington Biochemicals (CLS2); 5900 U/ml]and dispase [Calbiochem (lot#1312973); 16 mg/ml] for one hour. After enzymatic treatment, the ganglion cells were mechanically isolated by pipetting. The isolated ganglion cells were used for the experiments within 6 hours.
2) Determination of Calcium Electric Current
The calcium electric current was determined by the whole cell voltage clamp method under the fixed membrane potential. The pipette electrode was pulled from glass tube (inner diameter: 1.5 mm; Narishige) in two stage of a vertical pipette puller (PB-7; Narishige). The ionic current was amplified with a patch amplifier (CEZ-2300; Nihon Kohden Corporation). The noises were cut at 10 kHz (E-3201B, NF Electronic Instrument) and then the ionic current was monitored on a storage oscilloscope (DS-9121, Iwatsu) and, at the same time, recorded with a DAT data recorder (RD-120TE, TEAC). Then it was passed through a 1 kHz filter and recorded in a computer (Compaq DeskPro) with pCLAMP software (Axon Instrument) of 3 kHz. All the experiments were performed at room temperature (25±2° C.). In the measurement of the current through the calcium channel, 10 mM barium (composition of the solution: shown below) was used in place of calcium as the charge carrier. The transmission of barium through the calcium channel was higher than that of calcium in the sympathetic ganglion cells, and the calcium-dependent channel inactivation was slight when barium was used.
The test compounds were rapidly administered by Y-tube method by Murase et al. [Brain Res. 525, 84 (1990)]. Each compound was dissolved in DMSO preparing 10 mM mother solution. At the highest drug concentration used, the vehicle (0.1%) had no significant effect on the calcium electric current.
Composition of Normal Tyrode's solution: NaCl; 143, KCl; 4, MgCl2; 0.5; CaCl2; 1.8, glucose; 5.5, NaH2PO4; 0.33, HEPES; 5 (Mm). The pH was adjusted to 7.4 with tris-OH.
Composition of Ca-free Tyrode's solution: the same as that of the Normal Tyrode's solution except that it was free of CaCl2.
External solution for the determination of calcium electric current (mM): TEACl; 144, CsCl;. […]
On the technique in general: In patch-clamp work, channel activity is measured electrically.

Where [3] appears, read: 10^−7 M compound, inhibition rate on maximum KCl contraction of rat thoracic aorta.

Bounds are passed on as bounds.

T3 sequence (Q02294 whole entry): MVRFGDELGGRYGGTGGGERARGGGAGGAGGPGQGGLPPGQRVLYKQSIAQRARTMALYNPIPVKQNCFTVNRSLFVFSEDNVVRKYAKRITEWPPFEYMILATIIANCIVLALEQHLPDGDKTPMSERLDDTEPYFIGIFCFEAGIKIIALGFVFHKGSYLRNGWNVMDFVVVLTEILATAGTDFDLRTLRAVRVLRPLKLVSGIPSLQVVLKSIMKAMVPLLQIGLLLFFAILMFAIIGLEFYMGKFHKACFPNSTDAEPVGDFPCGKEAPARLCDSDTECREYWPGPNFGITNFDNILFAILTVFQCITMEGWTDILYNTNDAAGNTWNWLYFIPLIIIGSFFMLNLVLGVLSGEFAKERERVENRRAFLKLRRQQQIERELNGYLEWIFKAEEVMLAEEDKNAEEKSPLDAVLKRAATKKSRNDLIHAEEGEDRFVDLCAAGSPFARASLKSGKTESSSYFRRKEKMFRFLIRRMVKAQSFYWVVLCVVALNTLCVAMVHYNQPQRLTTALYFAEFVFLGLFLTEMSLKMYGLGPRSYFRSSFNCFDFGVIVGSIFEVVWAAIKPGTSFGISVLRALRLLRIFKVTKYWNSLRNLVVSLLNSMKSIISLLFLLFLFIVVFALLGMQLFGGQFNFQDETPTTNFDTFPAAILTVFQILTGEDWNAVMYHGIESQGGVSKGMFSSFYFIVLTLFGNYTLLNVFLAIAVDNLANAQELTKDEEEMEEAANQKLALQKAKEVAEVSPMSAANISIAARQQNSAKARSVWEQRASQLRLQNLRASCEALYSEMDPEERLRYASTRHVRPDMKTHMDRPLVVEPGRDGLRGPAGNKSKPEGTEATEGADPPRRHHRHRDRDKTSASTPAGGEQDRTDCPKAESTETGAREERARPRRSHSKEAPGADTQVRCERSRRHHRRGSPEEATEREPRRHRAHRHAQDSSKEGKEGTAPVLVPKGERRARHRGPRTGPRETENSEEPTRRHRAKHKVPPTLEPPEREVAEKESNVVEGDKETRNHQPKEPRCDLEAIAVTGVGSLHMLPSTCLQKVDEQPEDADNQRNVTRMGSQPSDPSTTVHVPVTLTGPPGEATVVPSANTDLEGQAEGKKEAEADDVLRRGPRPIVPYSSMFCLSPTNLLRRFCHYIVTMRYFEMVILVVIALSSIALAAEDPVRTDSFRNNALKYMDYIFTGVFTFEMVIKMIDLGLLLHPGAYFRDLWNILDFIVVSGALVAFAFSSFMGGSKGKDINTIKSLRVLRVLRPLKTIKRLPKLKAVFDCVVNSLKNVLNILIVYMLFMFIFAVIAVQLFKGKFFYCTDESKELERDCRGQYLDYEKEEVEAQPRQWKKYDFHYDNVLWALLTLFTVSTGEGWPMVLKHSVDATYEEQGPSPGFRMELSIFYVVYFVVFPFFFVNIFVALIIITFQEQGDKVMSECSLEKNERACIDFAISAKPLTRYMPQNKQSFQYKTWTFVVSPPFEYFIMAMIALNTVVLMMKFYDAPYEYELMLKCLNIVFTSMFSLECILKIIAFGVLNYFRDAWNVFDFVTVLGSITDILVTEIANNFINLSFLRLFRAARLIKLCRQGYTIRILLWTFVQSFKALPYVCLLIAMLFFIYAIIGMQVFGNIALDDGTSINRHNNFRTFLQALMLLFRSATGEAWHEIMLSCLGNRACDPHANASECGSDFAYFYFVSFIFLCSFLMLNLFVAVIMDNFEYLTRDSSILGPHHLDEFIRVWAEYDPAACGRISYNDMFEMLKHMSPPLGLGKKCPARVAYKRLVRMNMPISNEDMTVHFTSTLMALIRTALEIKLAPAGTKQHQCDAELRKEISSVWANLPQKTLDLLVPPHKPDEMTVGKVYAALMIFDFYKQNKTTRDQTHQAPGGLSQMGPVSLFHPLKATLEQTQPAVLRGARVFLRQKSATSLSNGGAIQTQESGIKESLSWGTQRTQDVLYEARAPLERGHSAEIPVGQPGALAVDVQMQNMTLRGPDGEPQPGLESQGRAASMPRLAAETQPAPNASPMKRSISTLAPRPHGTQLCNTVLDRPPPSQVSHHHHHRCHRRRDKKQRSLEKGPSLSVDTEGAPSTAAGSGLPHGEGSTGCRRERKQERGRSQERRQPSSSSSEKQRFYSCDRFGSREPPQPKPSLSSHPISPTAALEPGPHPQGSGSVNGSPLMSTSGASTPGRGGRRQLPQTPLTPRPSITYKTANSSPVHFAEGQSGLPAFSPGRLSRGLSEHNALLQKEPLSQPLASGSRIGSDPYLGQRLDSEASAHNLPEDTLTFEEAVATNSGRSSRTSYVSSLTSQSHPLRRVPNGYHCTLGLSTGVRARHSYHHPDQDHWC
T3 sequence (P54290 25-944 partner limits assumed): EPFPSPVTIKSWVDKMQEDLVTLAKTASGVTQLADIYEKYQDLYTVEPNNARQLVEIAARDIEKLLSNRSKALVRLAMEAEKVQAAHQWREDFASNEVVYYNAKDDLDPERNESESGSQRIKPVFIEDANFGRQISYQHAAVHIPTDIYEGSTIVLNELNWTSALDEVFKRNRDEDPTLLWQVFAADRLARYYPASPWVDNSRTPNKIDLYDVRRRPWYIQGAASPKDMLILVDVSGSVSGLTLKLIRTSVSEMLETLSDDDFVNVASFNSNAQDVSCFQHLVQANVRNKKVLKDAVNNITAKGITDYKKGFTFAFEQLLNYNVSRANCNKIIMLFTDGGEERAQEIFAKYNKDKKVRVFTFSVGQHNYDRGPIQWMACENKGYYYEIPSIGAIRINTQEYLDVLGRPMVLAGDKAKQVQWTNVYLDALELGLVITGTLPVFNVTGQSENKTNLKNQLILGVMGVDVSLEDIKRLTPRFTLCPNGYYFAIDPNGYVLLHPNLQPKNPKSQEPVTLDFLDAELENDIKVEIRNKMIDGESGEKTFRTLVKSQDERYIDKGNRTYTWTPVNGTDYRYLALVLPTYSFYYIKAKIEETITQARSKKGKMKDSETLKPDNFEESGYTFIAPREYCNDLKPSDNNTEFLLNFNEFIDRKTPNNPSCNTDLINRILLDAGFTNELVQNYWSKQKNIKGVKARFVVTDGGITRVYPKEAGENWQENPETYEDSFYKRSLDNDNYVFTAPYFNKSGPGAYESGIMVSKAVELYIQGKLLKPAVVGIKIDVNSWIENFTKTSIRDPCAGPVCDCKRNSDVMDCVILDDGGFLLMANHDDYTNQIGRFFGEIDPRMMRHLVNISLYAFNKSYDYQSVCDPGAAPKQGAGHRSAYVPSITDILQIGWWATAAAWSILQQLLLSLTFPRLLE
T3 sequence (P54290 945-1091 partner limits assumed): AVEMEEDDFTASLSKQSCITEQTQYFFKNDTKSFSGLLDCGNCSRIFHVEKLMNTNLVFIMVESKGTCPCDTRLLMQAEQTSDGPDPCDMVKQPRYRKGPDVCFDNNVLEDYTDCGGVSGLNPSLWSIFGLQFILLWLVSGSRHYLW
T3 sequence (P54287 whole entry partner): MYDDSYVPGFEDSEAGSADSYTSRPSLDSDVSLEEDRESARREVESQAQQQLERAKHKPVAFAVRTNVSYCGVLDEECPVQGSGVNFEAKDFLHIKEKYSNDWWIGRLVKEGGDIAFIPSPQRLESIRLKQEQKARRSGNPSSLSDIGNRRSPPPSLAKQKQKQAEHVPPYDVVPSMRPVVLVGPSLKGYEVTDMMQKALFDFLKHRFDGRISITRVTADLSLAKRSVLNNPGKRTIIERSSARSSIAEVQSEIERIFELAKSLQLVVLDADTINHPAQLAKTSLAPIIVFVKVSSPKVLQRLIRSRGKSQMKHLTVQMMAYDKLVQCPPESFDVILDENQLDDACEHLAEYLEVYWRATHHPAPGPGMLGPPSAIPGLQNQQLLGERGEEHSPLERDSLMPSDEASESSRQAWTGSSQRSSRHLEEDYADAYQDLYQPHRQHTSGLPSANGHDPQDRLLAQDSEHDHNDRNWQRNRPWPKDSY

For `CC1=C(C(=O)O)C(c2cccc(Cl)c2)C(C(=O)NCC(=O)Nc2ccccc2)=C(C)N1` (stereo not shown) [Example 21, 4-(3-chlorophenyl)-2,6-dimethyl-5-(phenylcarbamoylmethylcarbamoyl)-1,4-dihydropyridine-3-carboxylic acid], at N-type calcium channel [1], the IC50 was 794 nM.
Regarding “(3-phenyl-2-propene-1-yl) 4-(3-chlorophenyl)-5-cyano-2,6-dimethyl-1,4-dihydropyridine-3-carboxylate [Example 12]”, the “L-type inhibition 10^−7 M (%)” value at L-type calcium channel (setting [3]) was 21%. Moreover, at L-type calcium channel, the IC50 turned out to be 220 nM. Besides, at N-type calcium channel [2], the “N-type inhibition 0.1 uM (%)” value stood at 24%. Moreover, the “N-type inhibition pIC50” value at N-type calcium channel [1] is listed as 5.9.
Regarding `CC1=C(C(=O)O)C(c2cccc(Cl)c2)C(C(=O)NCCC(c2ccccc2)c2ccccc2)=C(C)N1` (stereo not shown) [Example 34, 4-(3-chlorophenyl)-2,6-dimethyl-5-(3,3-diphenylpropylcarbamoyl)-1,4-dihydropyridine-3-carboxylic acid], on N-type calcium channel [1], the IC50 was 631 nM.
As usually defined, the inhibition is the relative decrease from the control value, in per cent. `CC1=C(C(=O)O)C(c2cccc([N+](=O)[O-])c2)C(C(=O)NC/C=C/c2ccccc2)=C(C)N1` (stereo not shown) [Example 4, 2,6-dimethyl-4-(3-nitrophenyl)-5-(3-phenyl-2-propene-1-ylcarbamoyl)-1,4-dihydropyridine-3-carboxylc acid]: the inhibition at 0.1 µM at L-type calcium channel (setting [3]) was -7%; on N-type calcium channel [2] it was 16%. The values for the IC50 at L-type calcium channel and on N-type calcium channel [1] were 914 nM and 1580 nM, respectively.
In the case of `CC1=C(C(=O)O)C(c2cccc(Cl)c2)C(C(=O)NCC=Cc2ccccc2)=C(C)N1` (stereo not shown) [Example 1, 4-(3-chlorophenyl)-2,6-dimethyl-5-(3-phenyl-2-propene-1-ylcarbamoyl)-1,4-dihydropyridine-3-carboxylic acid], the inhibition at 0.1 µM was found to be 19% on L-type calcium channel (setting [3]) and 35% at N-type calcium channel [2]. The IC50 at L-type calcium channel was over 1000 nM; at N-type calcium channel [1], 5010 nM.
As to `CC1=C(C(=O)O)C(c2ccc([N+](=O)[O-])cc2)C(C(=O)NCC=Cc2ccccc2)=C(C)N1` (stereo not shown) [Example 17, 2,6-dimethyl-4-(4-nitrophenyl)-5-[(3-phenyl-2-propene-1-yl)carbamoyl]-1,4-dihydropyridine-3-carboxylic acid], the inhibition at 0.1 µM is -6% at L-type calcium channel (setting [3]) and 16% on N-type calcium channel [2]. In addition, the IC50 was over 1000 nM at L-type calcium channel and 1580 nM at N-type calcium channel [1].
With `CC1=C(C(=O)O)C(c2cccc(C#N)c2)C(C(=O)NCC=Cc2ccccc2)=C(C)N1` (stereo not shown) [Example 10, 4-(3-cyanophenyl)-2,6-dimethyl-5-(3-phenyl-2-propene-1-ylcarbamoyl)-1,4-dihydropyridine-3-carboxylic acid], the IC50 on N-type calcium channel [1] is 2510 nM.
